“Also recorded” adds a separate entry of the source. Where no end group is shown, it is not given here.
Columns and labels:
[1] = tested on: VSC4.1 cells, a motor neuron/neuroblastoma cell hybrid; experiment: VSC4.1 cell proliferation assay (BrdU); type: cell-based; conditions: for Biological Function / OD (optimal dose): VSC4.1 proliferation; for maximal increase in cell proliferation: % increase over control; for stimulation of VSC4.1 cell proliferation over controls: second round of experiments
Procedure: Studies of proliferation were performed in 96 well plates utilizing a cell proliferation assay kit from Roche Diagnostics GmbH (Mannheim, Germany). VSC4.1 cells, a motor neuron/neuroblastoma cell hybrid, were cultured in DMEM with 2% FBS containing either no MNTF or a dose range of MNTF from 10^−8 to 10^−5 g/ml. Each treatment was applied in triplicate wells. The cells were cultured for 21 hours and 5-bromo-2′-deoxyuridine (BrdU) from the assay kit was added to each well. After BrdU labeling for 3 hours, the cells were washed, fixed and dried. The cells were then fixed and the DNA denatured to improve access for the subsequent antibody binding. POD-labeled mouse monoclonal anti-BrdU antibody from the assay kit was applied for 2 hours, followed by a wash. The assay was quantitated by adding the colorimetric assay solution (tetramethyl benzidine) and reading at 450 nm on a Wallac Vector 2 plate reader. Cells in the treatment groups were quantitated by comparing to wells plated with a gradient of cells from 0 to 20,000 cells/well on the same plate. Data is expressed as % of control to allow for variability from plate to plate.
Additional cell proliferation assays, conducted essentially as described above, were performed to compare the effects of several GLP grade MNTF peptides.
Further cell proliferation studies were performed, essentially as described above, to test the response of the motor neuron/neuroblastoma cells to three new preparations of MNTF. The MNTF preparations utilized for these assays were: […]

rat femoral nerve = experiment: Femoral nerve model, MNTF pump experiments (Preferential Motor Reinnervation); type: in vivo
Procedure: The specificity of motor axon regeneration was investigated in the rat femoral nerve. Proximally, at the site of nerve transection and suture, axons that contribute to both cutaneous and muscle branches intermingle throughout the nerve. As these axons regenerate, they have equal access to neighboring motor and sensory Schwann cell tubes in the distal nerve stump. This assures an element of “choice” at the axonal level. Distally, where the specificity of regeneration is assessed, axons are segregated into terminal cutaneous and muscle branches. Motor axons are normally found only in the muscle branch, so any motor reinnervation of the cutaneous branch represents a pathfinding failure. The specificity of axon regeneration is evaluated by simultaneous application of horseradish peroxidase (HRP) to one distal femoral branch and fluoro-gold (FG) to the other. Motor-axon regeneration is random at 3 weeks, but the number of correct projections to muscle increases dramatically at later times. Many neurons initially contain both tracers, and thus project collaterals to both cutaneous and muscle branches. The number of these double-labeled neurons decreases with time. Motor axon collaterals are thus pruned from the cutaneous branch, increasing the number of correct projections to muscle at the expense of double-labeled neurons. A specific interaction thus occurs between regenerating motor axons and muscle and/or muscle nerve that we have termed Preferential Motor Reinnervation (PMR).
In preliminary experiments we attempted to modify motor axon regeneration in the femoral nerve by pumping MNTF 33mer at 10^−4 M onto the repair site, using an Alzet osmotic pump which discharges for at least 2 weeks. The output of the pump was sewn to muscle adjacent to the nerve repair, so that the nerve wound would be continuously bathed with the factor. Reinnervation of the distal femoral cutaneous and muscle branches was quantified with tracers as described above.
In a follow-up experiment MNTF 33mer was administered to eight transected and sutured rat femoral nerves at 10^−4 M, essentially as described above. Controls were a group of six nerves that underwent routine suture with pumps delivering saline but no MNTF. A mean of 100 motoneurons projected correctly in the six controls, whereas a mean of 87 motoneurons projected incorrectly to skin.
To determine if a truncated MNTF peptide could be substituted for MNTF 33mer, subsequent experiments were performed, essentially as described above, using the MNTF 6mer FSRYAR, at 10^−4 M (n=8), 10^−5 M (n=8) and 10^−6 M (n=8), with a total of 22 saline controls for comparison. […] Thus the 6mer is capable of promoting selective reinnervation of target muscles in a manner similar to the MNTF1 33mer.

[2] = earliest studies, FIG. 2, listed as GLP grade MNTF 33mer
[3] = earliest studies, FIG. 2, listed as MNTF 33mer (research grade)
[4] = second set, FIG. 3, highest dose
[5] = follow-up experiment, 10^−4 M, eight nerves, saline pump controls
[6] = preliminary experiments, 10^−4 M by Alzet osmotic pump, three weeks, three animals
[7] = 10^−4 M, 10^−5 M and 10^−6 M, FIG. 5, vs saline controls

Row | Substance | Biological Function ([1]; assay set Aug. 4, 2003) | OD (optimal dose) ([1]; assay set Aug. 4, 2003) | Biological Function ([1]; assay set Mar. 28, 2003) | Biological Function ([1]; assay set Oct. 27, 2002) | effect on proliferation of motor neuron/neuroblastoma cells (summary in description) ([1]; in vitro) | relative effectiveness in proliferation assay (words) ([1]; third set, FIG. 4) | OD (optimal dose) ([1]; assay set Mar. 28, 2003) | OD (optimal dose) ([1]; assay set Oct. 27, 2002) | dose of maximal response ([1]; earliest studies, FIG. 2) | relative effectiveness in proliferation assay (words) ([1]; earliest studies, FIG. 2) | maximal increase in cell proliferation ([1]; earliest studies, FIG. 2) | relative effectiveness in proliferation assay (words) ([1]; second set, FIG. 3) | also measured
1 | 33mer: 33 amino acid MNTF1-F6 fragment, SEQ ID NO:1, made by solid phase synthesis; positive control in cell proliferation assays (LGTFWGDTLNCWMLSAFSRYARCLAEGHDGPTQ) [reference compound] | Effective | 0.01 µg/mL | Effective | Effective | effective at increasing the proliferation of motoneuron/neuroblastoma cells | significantly (p<0.05) stimulated proliferation over control; also recorded: nearly as well as the 10mer at low doses; also recorded: clearly superior to the 21mer |  |  |  |  |  |  | OD (optimal dose) ([1]; assay set Mar. 28, 2003, listed as 33mer GLPg, L): 10 µg/mL; OD (optimal dose) ([1]; assay set Mar. 28, 2003, listed as 33mer Rg, L): 100 µg/mL; OD (optimal dose) ([1]; assay set Oct. 27, 2002, listed as 33mer GLPg, L): 0.1 µg/mL; OD (optimal dose) ([1]; assay set Oct. 27, 2002, listed as 33mer Rg, L): 10 µg/mL; maximal increase in cell proliferation [1, 2]: 34.3%; maximal increase in cell proliferation [1, 3]: 31.7%; relative effectiveness in proliferation assay (words) ([1]; earliest studies, FIG. 2, listed as GLP grade 33mer): most biologically active; dose of maximal response [1, 2]: 0.1 µg/mL; relative effectiveness in proliferation assay (words) [1, 2]: most effective in this assay; dose of maximal response [1, 3]: 10 µg/mL; peak fold response in proliferation ([1]; second set, FIG. 3, at 10 μg/ml): 3 fold; fold increase in proliferation [1, 4]: ~3 fold; correct projections of motoneurons to muscle (mean) (rat femoral nerve; [5]): 173; incorrect projections of motoneurons to skin (mean) (rat femoral nerve; [5]): 59; correct projections of motoneurons to muscle (mean) (rat femoral nerve; [6]): 210; incorrect projections of motoneurons to skin (mean) (rat femoral nerve; [6]): 31
2 | WMLSAFS [7mer] |  |  | Effective | Effective | potent stimulator of motor neuron/neuroblastoma cells in vitro over a broad range of dosage levels |  | 100 µg/mL | 1 µg/mL | 1 µg/mL | markedly less effective | 25.1% | most potent preparation across the whole dose range; also recorded: most active proliferative agent | relative effectiveness in proliferation assay (words) ([1]; earliest studies, FIG. 2, listed as MNTF 7mer): broader active dose range than the other preparations; stimulation of VSC4.1 cell proliferation over controls [1]: 350%; fold increase in proliferation [1, 4]: ~3.5 fold; fold increase in proliferation ([1]; second set, FIG. 3, lowest dose applied): 2.5 fold
3 | cyclized MNTF 13mer: cyclized version of the 13-mer CWMLSAFSRYARC, SEQ ID NO:6, research grade (also: cyclized) |  |  |  | Limited Efficacy. | not as effective at stimulating cell proliferation in vitro |  |  |  | 1 µg/mL | least effective of all peptides tested | 17.3% |  | effect on proliferation at higher doses ([1]; earliest studies, FIG. 2, higher doses): appeared to inhibit proliferation; relative effectiveness in proliferation assay (words) ([1]; earliest studies, FIG. 2, listed as cyclized 13mer): markedly less effective
4 | Cyclized MNTF 33mer: cyclized version of the MNTF1 33-mer, SEQ ID NO:1, research grade (LGTFWGDTLNCWMLSAFSRYARCLAEGHDGPTQ; also: cyclized) |  |  |  | Limited Efficacy. | less effective |  |  |  | 0.1 µg/mL | limited efficacy | 12.9% |  | relative effectiveness in proliferation assay (words) ([1]; earliest studies, FIG. 2, listed as cyclized MNTF 33mer): very weak proliferative activity at low doses
5 | MLSAFSRYARCLAEGHDGPTQ [21mer] | Effective | 0.1 µg/mL |  |  | sufficient to increase cell proliferation of motor neuron/neuroblastoma cells | significantly (p<0.05) stimulated proliferation over control; also recorded: about half that of the other two MNTF isoforms |  |  |  |  |  |  | 
6 | FSRYAR [6mer] |  |  | Effective | Effective | sufficient to increase cell proliferation of motor neuron/neuroblastoma cells |  | 1 µg/mL | 10 µg/mL | 10 µg/mL | comparably effective | 35.1% | poorest performers; also recorded: less effectively than the others | fold increase in proliferation ([1]; second set, FIG. 3, at 1 μg/ml): ~2.5 fold; correct projections (rat femoral nerve; [7]): significant increases in correct projections at every dose tested; incorrect projections to skin (rat femoral nerve; [7]): marked reductions in the number of incorrect projections to skin
7 | CWMLSAFSRYARC [13mer] |  |  | Effective |  | sufficient to increase cell proliferation of motor neuron/neuroblastoma cells |  | 0.1 µg/mL |  |  |  |  | some efficacy at the lowest dose, this effect fell off at higher doses | stimulation of VSC4.1 cell proliferation over controls [1]: ≥ 250%
8 | MLSAFSRYAR [10mer] | Effective | 0.01 µg/mL |  |  | at least as effective the full-length MNTF 33mer | significantly (p<0.05) stimulated proliferation over control; also recorded: most active proliferative agent; also recorded: clearly superior to the 21mer |  |  |  |  |  |  | lowest concentration at which at least as effective as MNTF 33mer ([1]; in vitro): 0.01 µg/mL; increase in proliferation over controls ([1]; third set, FIG. 4, three lowest doses used): ~200%
9 | FSRYARCLAEG [11mer] |  |  | Effective | Effective | sufficient to increase cell proliferation of motor neuron/neuroblastoma cells |  | 1 µg/mL | 10 µg/mL | 10 µg/mL | comparably effective | 32.2% | poorest performers; also recorded: less effectively than the others | fold increase in proliferation ([1]; second set, FIG. 3, at 1 μg/ml): ~2.5 fold

Reference: patent US7795215B2, “MNTF peptides and compositions and methods of use” (Genervon Biopharmaceuticals LLC, priority 2003, dated 2010)
